Where a name gives a salt, the structure may show the parent alone. Marks after values point to notes of the source that are not given here.
Test system: Staphylococcus aureus ATCC 29213
Assay: Bactericidal activity by time kill method
Type: cell-based
Conditions: for Average Log: Baseline 7.123; for concentration required to deliver >3 log reduction in viable count: within 30 seconds of contact time
Description: Multiple surfactants in solution formulations were tested for use with the wipes. Effects of individual excipients such as phosphate buffer, polysorbate 20, nonoxynol-9, Cremophor® RH-40, dimethicone, and combinations of these products were investigated to determine the possibility of adverse effects on the antimicrobial efficacy of octenidine dihydrochloride. Bactericidal activities of octenidine dihydrochloride alone and in combinations with various excipients (Table 11) were tested by a time kill method using Staphylococcus aureus ATCC 29213 as test organism (Table 12).
Neutralizing effects of two similar surfactants, 0.5% Cremophor® RH40 and 0.5% polysorbate 20, on the bactericidal activity of octenidine dihydrochloride were tested using the Staphylococcus aureus ATCC 29213 as test organism (Table 13 and 14).

[1] = OCT 20 PPM, 0.5% Cremophor ® RH40, 30 seconds
[2] = OCT 20 PPM, 0.5% Polysorbate 20, 30 seconds
[3] = OCT 20 PPM, Aqueous, 30 seconds
[4] = OCT 100 PPM, 0.5% Cremophor ® RH40, 30 seconds
[5] = OCT 100 PPM, 0.5% Polysorbate 20, 30 seconds
[6] = OCT 100 PPM, Aqueous, 30 seconds
[7] = OCT 500 PPM, 0.5% Cremophor ® RH40, 30 seconds
[8] = OCT 500 PPM, 0.5% Polysorbate 20, 30 seconds
[9] = OCT 500 PPM, Aqueous, 30 seconds
[10] = OCT 4000 PPM, Full base formulation with Cremophor ® RH40
[11] = OCT 4000 PPM, Full base formulation with Polysorbate 20 (Table 13)

Structure (SMILES): CCCCCCCCN=c1ccn(CCCCCCCCCCn2ccc(=NCCCCCCCC)cc2)cc1 [OCT, octenidine dihydrochloride]
- Log Reduction (OCT 2 PPM in 0.1% Nonoxynol-9 in water, 30 seconds): 1.52
- Log Reduction (OCT 2 PPM in 0.25% Dimethicone in water, 30 seconds): 1.17
- Log Reduction (OCT 2 PPM in 1.5% Polysorbate 20 in water, 30 seconds): 0.30
- Log Reduction (OCT 2 PPM in Full base formulation with Nonoxynol-9 and Polysorbate 20 (Table 11), 30 seconds): 0.29
- Log Reduction (OCT 2 PPM in Full base formulation with Polysorbate 20 (Table 11), 30 seconds): 0.04
- Log Reduction (OCT 2 PPM in Phosphate Buffered Water, pH 6.0, 30 seconds): 1.39
- Log Reduction (OCT 2 PPM in Water, contact time 30 seconds): 3.41
- Log Reduction (OCT 20 PPM in 0.1% Nonoxynol-9 in water, 30 seconds): 2.94
- Log Reduction (OCT 20 PPM in 0.25% Dimethicone in water, 30 seconds): 1.41
- Log Reduction (OCT 20 PPM in 1.5% Polysorbate 20 in water, 30 seconds): 0.57
- Log Reduction (OCT 20 PPM in Full base formulation with Nonoxynol-9 and Polysorbate 20 (Table 11), 30 seconds): 0.58
- Log Reduction (OCT 20 PPM in Full base formulation with Polysorbate 20 (Table 11), 30 seconds): 0.35
- Log Reduction (OCT 20 PPM in Phosphate Buffered Water, pH 6.0, 30 seconds): 2.87
- Log Reduction (OCT 20 PPM in Water, contact time 30 seconds): 3.78
- Average Log Reduction [1]: 0.740
- Percent Reduction [1]: 81.808%
- Average Log [1]: 6.383
- Average Log Reduction [2]: 0.795
- Percent Reduction [2]: 83.979%
- Average Log [2]: 6.327
- Average Log Reduction [3]: 5.123
- Percent Reduction [3]: 99.999%
- Average Log [3]: 2.000
- Log Reduction (OCT 100 PPM in 0.1% Nonoxynol-9 in water, 30 seconds): 4.69
- Log Reduction (OCT 100 PPM in 0.25% Dimethicone in water, 30 seconds): 1.67
- Log Reduction (OCT 100 PPM in 1.5% Polysorbate 20 in water, 30 seconds): 1.01
- Log Reduction (OCT 100 PPM in Full base formulation with Nonoxynol-9 and Polysorbate 20 (Table 11), 30 seconds): 0.60
- Log Reduction (OCT 100 PPM in Full base formulation with Polysorbate 20 (Table 11), 30 seconds): 0.49
- Log Reduction (OCT 100 PPM in Phosphate Buffered Water, pH 6.0, 30 seconds): 4.78
- Log Reduction (OCT 100 PPM in Water, contact time 30 seconds): 4.65
- Average Log Reduction [4]: 1.472
- Percent Reduction [4]: 96.624%
- Average Log [4]: 5.651
- Average Log Reduction [5]: 1.205
- Percent Reduction [5]: 93.767%
- Average Log [5]: 5.917
- Average Log Reduction [6]: 5.123
- Percent Reduction [6]: 99.999%
- Average Log [6]: 2.000
- Log Reduction (OCT 500 PPM in 0.1% Nonoxynol-9 in water, 30 seconds): 5.12
- Log Reduction (OCT 500 PPM in 0.25% Dimethicone in water, 30 seconds): 2.12
- Log Reduction (OCT 500 PPM in 1.5% Polysorbate 20 in water, 30 seconds): 1.12
- Log Reduction (OCT 500 PPM in Full base formulation with Nonoxynol-9 and Polysorbate 20 (Table 11), 30 seconds): 1.40
- Log Reduction (OCT 500 PPM in Full base formulation with Polysorbate 20 (Table 11), 30 seconds): 0.76
- Log Reduction (OCT 500 PPM in Phosphate Buffered Water, pH 6.0, 30 seconds): 5.12
- Log Reduction (OCT 500 PPM in Water, contact time 30 seconds): 5.12
- Average Log Reduction [7]: 5.123
- Percent Reduction [7]: 99.999%
- Average Log [7]: 2.000
- Average Log Reduction [8]: 3.080
- Percent Reduction [8]: 99.917%
- Average Log [8]: 4.043
- Average Log Reduction [9]: 5.123
- Percent Reduction [9]: 99.999%
- Average Log [9]: 2.000
- Log Reduction (OCT 1000 PPM in Full base formulation with Nonoxynol-9 and Polysorbate 20, total kill, value is limit of detection): ≥ 3.94*
- Log Reduction (OCT 2000 PPM in Full base formulation with Nonoxynol-9 and Polysorbate 20, total kill, value is limit of detection): ≥ 4.14*
- Log Reduction (OCT 4000 PPM in Full base formulation with Nonoxynol-9 and Polysorbate 20, total kill, value is limit of detection): ≥ 4.14*
- Average Log Reduction [10]: 4.123
- Percent Reduction [10]: 99.992%
- Average Log [10]: 3.000
- Average Log Reduction [11]: 4.123
- Percent Reduction [11]: 99.992%
- Average Log [11]: 3.000
- percent reduction in viable count at 2 ppm (Staphylococcus aureus, ATCC29213, octenidine dihydrochloride alone, 2 PPM, contact time of 30 seconds): > 99.9%
- concentration required to show 99.9% reduction in viable count (dissolved in pH 6.0 phosphate buffered water): > 20 PPM
- microbicidal activity in the full base formulation (higher than 1000 PPM of octenidine dihydrochloride, full base formulation of Table 11): rapidly microbicidal
- concentration required for 99.9% reduction relative to the concentration in water (pH 6.0 phosphate buffered water vs water): > 10 times
- concentration required to deliver >3 log reduction in viable count (with 0.5% Cremophor® RH40): 500 PPM
- concentration required to deliver >3 log reduction in viable count (with 0.5% polysorbate 20): 500 PPM

From patent publication US10645927B2, “Antimicrobial wipe” (Carefusion 2200, Inc., priority 2015, dated 2020)
